Measured values as given in PubChem BioAssay AID1745844 (Carcinogenic Potency Database (CPDB), 2022).
Active and inactive are the calls of the source. No rule for the calls is given here.

Test system: rodent lifetime carcinogenesis bioassay, tumor incidence TD50
Experiment: carcinogenic potency in animals, long-term in vivo studies, CPDB compilation (AID 1745844)

FC(F)(F)C(Cl)Cl
TD50 (rat, strain Charles River CD (Sprague-Dawley), females, inhaled, site: liver, lesion: cholangiofibroma, dosed 105 weeks, study length 105 weeks): 22700 mg/kg/day | TD50 (rat, strain Charles River CD (Sprague-Dawley), females, inhaled, site: liver, lesion: hepatocellular adenoma, dosed 105 weeks, study length 105 weeks): 20300 mg/kg/day | TD50 (rat, strain Charles River CD (Sprague-Dawley), females, inhaled, site: pancreas, lesion: acinar-cell adenoma, dosed 105 weeks, study length 105 weeks): 92100 mg/kg/day | TD50 (rat, strain Charles River CD (Sprague-Dawley), males, inhaled, site: liver, lesion: hepatocellular adenoma, dosed 105 weeks, study length 105 weeks): 13100 mg/kg/day | TD50 (rat, strain Charles River CD (Sprague-Dawley), males, inhaled, site: pancreas, lesion: acinar-cell adenoma, dosed 105 weeks, study length 105 weeks): 1260 mg/kg/day | TD50 (rat, strain Charles River CD (Sprague-Dawley), males, inhaled, site: pancreas, lesion: acinar-cell carcinoma, dosed 105 weeks, study length 105 weeks): 60800 mg/kg/day | TD50 (rat, strain Charles River CD (Sprague-Dawley), males, inhaled, site: testis, lesion: interstitial-cell adenoma, dosed 105 weeks, study length 105 weeks): 9050 mg/kg/day

OO
TD50 (mouse, strain C57BL/6J, females, in drinking water, site: duodenum, lesion: adenoma, dosed 100 weeks, study length 100 weeks): 2010 mg/kg/day | TD50 (mouse, strain C57BL/6J, females, in drinking water, site: duodenum, lesion: carcinoma, dosed 100 weeks, study length 100 weeks): 7540 mg/kg/day | TD50 (mouse, strain C57BL/6J, females, in drinking water, site: duodenum, lesion: several types, types named in the paper, dosed 100 weeks, study length 100 weeks): 7830 mg/kg/day | TD50 (mouse, strain C57BL/6J, males, in drinking water, site: duodenum, lesion: adenoma, dosed 100 weeks, study length 100 weeks): 7350 mg/kg/day | TD50 (mouse, strain C57BL/6J, males, in drinking water, site: duodenum, lesion: carcinoma, dosed 100 weeks, study length 100 weeks): 15000 mg/kg/day | TD50 (mouse, strain C57BL/6J, males, in drinking water, site: duodenum, lesion: several types, types named in the paper, dosed 100 weeks, study length 100 weeks): 4800 mg/kg/day

CCCCCC(/C=C/C=C\CCCCCCCC(=O)OC)OO (stereo unspecified)
carcinogen call (rat, strain Wistar, males, by gavage, site: gastrointestinal tract, lesion: several types, types named in the paper, dosed 30 weeks, study length 87 weeks): negative (inactive) | carcinogen call (rat, strain Wistar, males, by gavage, site: liver, lesion: one or several types, types not named, dosed 30 weeks, study length 87 weeks): negative (inactive)

CCOP(=S)(OCC)SC1OCCOC1SP(=S)(OCC)OCC (stereo unspecified)
TD50 (mouse, strain B6C3F1, females, in feed, site: any site (literature study), lesion: several types, types named in the paper, dosed 78 weeks, study length 90 weeks): 2590 mg/kg/day (inactive) | TD50 (mouse, strain B6C3F1, females, in feed, site: lung, lesion: alveolar/bronchiolar adenoma + alveolar/bronchiolar carcinoma, dosed 78 weeks, study length 90 weeks): 1820 mg/kg/day | carcinogen call (mouse, strain B6C3F1, males, in feed, site: any site (literature study), lesion: several types, types named in the paper, dosed 78 weeks, study length 90 weeks): negative (inactive) | TD50 (mouse, strain B6C3F1, males, in feed, site: lung, lesion: alveolar/bronchiolar adenoma + alveolar/bronchiolar carcinoma, dosed 78 weeks, study length 90 weeks): 628 mg/kg/day | carcinogen call (rat, strain Osborne-Mendel, females, in feed, site: any site (literature study), lesion: several types, types named in the paper, dosed 78 weeks, study length 111 weeks): negative (inactive) | carcinogen call (rat, strain Osborne-Mendel, males, in feed, site: any site (literature study), lesion: several types, types named in the paper, dosed 78 weeks, study length 111 weeks): negative (inactive)

CC(O)CN(N=O)C(=O)NCCCl (stereo unspecified)
TD50 (rat, strain Fischer 344, females, by gavage, site: all sites, lesion: mononuclear-cell leukemia, dosed 40 weeks, study length 95 weeks): 0.962 mg/kg/day | TD50 (rat, strain Fischer 344, females, by gavage, site: liver, lesion: hepatocellular carcinoma, dosed 40 weeks, study length 95 weeks): 8.81 mg/kg/day | TD50 (rat, strain Fischer 344, females, by gavage, site: liver, lesion: neoplastic nodule, dosed 40 weeks, study length 95 weeks): 0.885 mg/kg/day | TD50 (rat, strain Fischer 344, females, by gavage, site: liver, lesion: several types, types named in the paper, dosed 40 weeks, study length 95 weeks): 0.885 mg/kg/day | TD50 (rat, strain Fischer 344, males, by gavage, site: liver, lesion: hepatocellular carcinoma, dosed 35 weeks, study length 120 weeks): 2.71 mg/kg/day | TD50 (rat, strain Fischer 344, males, by gavage, site: liver, lesion: neoplastic nodule, dosed 35 weeks, study length 120 weeks): 1.17 mg/kg/day | TD50 (rat, strain Fischer 344, males, by gavage, site: liver, lesion: several types, types named in the paper, dosed 35 weeks, study length 120 weeks): 0.861 mg/kg/day | TD50 (rat, strain Fischer 344, males, by gavage, site: lung, lesion: alveolar/bronchiolar tumor, dosed 35 weeks, study length 120 weeks): 2.39 mg/kg/day

CCCN(N)C=O
TD50 (mouse, strain Swiss albino, females, in drinking water, site: gall bladder, lesion: adenoma, dosed 75 weeks, study length 79 weeks): 497 mg/kg/day | TD50 (mouse, strain Swiss albino, females, in drinking water, site: gall bladder, lesion: several types, types named in the paper, dosed 75 weeks, study length 79 weeks): 444 mg/kg/day | TD50 (mouse, strain Swiss albino, females, in drinking water, site: liver, lesion: several types, types named in the paper, dosed 75 weeks, study length 79 weeks): 215 mg/kg/day | TD50 (mouse, strain Swiss albino, females, in drinking water, site: lung, lesion: several types, types named in the paper, dosed 75 weeks, study length 79 weeks): 8.74 mg/kg/day | TD50 (mouse, strain Swiss albino, males, in drinking water, site: lung, lesion: several types, types named in the paper, dosed 51 weeks, study length 61 weeks): 8.84 mg/kg/day | TD50 (mouse, strain Swiss albino, males, in drinking water, site: preputial gland, lesion: several types, types named in the paper, dosed 51 weeks, study length 61 weeks): 60.4 mg/kg/day | TD50 (mouse, strain Swiss albino, males, in drinking water, site: preputial gland, lesion: squamous-cell carcinoma, dosed 51 weeks, study length 61 weeks): 75.7 mg/kg/day
